Measured values: patent EP4644391A1, “NOVEL PHENYLQUINOLONE COMPOUND HAVING ANTIBACTERIAL AND ANTICANCER FUNCTIONS, AND PREPARATION THEREOF” (Alphamol Science Ltd (Shanghai), priority 2022, dated 2024)
Values after ≈ are worked out from the molar mass of the structure shown.

Key:
Assay type in all cases: cell-based
[1] = test system: Staphylococcus aureus ATCC43300; assay: Resistance test of bacteria against compounds (serial passage, 21 days); settings: for MIC: Staphylococcus aureus, ATCC43300, 504 h, read-out: MIC at the end of the experiment
Description: This example provides a resistance test of bacteria against compounds, and the specific experimental method is as follows. • 1. […] It was ensured that among the 6 final concentrations of the drug diluted into the wells, some were higher than the original MIC of the bacteria and some were lower than the original MIC of the bacteria. • 2. Preparation of bacterial liquid: 10 mL of culture medium was taken and added to a sterilized plate using a pipette, then 100 µL of the above-mentioned passaged bacterial liquid was added, and mixed well for later use. • 3. The above-mentioned diluted bacterial liquid was taken and added to a 96-well plate using a pipette, 180 µL per well, 3 wells per group, 6 groups in total. 20 µL of drug solution was added to each well (note: it is necessary to replace the pipette tip each time the drug is added), so that the final drug concentrations were 2 µg/mL, 1 µg/mL, 0.8 µg/mL, 0.4 µg/mL, 0.2 µg/mL, 0.1 µg/mL, respectively. The well with 200 µL of diluted bacterial liquid was used as the positive control well, and the well with 200 µL of culture medium was used as the negative control well.
The test object was Staphylococcus aureus (S. aureus). The specific results are shown in FIG1.

[2] = test system: human acute T-lymphoblastic leukemia cell Jurkat; assay: In vitro anticancer activity test (MTT cell proliferation assay)
Description: (§1) The anticancer activity of the compounds was tested using an in vitro cancer cell tests. The specific test method is as follows: • 1. Cell recovery and culture method: the cryovial was taken out from the liquid nitrogen container firstly, soaked directly in 37°C warm water, and shaked from time to time to let it thaw as soon as possible. Then, the cryovial was transferred to a clean bench, and the lid was open. […] Then, the supernatant was discarded, complete culture medium containing 10% fetal bovine serum was added to resuspend the cells, the cells was counted, the cell density was adjusted, and then inoculated into a culture bottle. The culture bottle was placed in a cell culture incubator at 5% CO2 and 37°C. The complete culture medium was replaced once the next day and the culture was continued. • 2. Cell passaging method: adherent cells in the logarithmic growth phase were placed in a clean bench, the original culture medium was discarded, and washed three times with 1×PBS. An appropriate amount of 0.25% trypsin digestion solution was added to moisten the cells, and then the trypsin solution was aspirated. […] When 90% of the cells become round, the cells were moved immediately to the clean bench and complete culture medium was added to terminate digestion. Then, the cells were dislodged by pipetting up and down with a rubber-tipped dropper to single cells. The cells were counted, and the cell density was adjusted. The cells were inoculated into a suitable culture bottle or dish, added enough complete culture medium, and placed in a cell culture incubator at 5% CO2 and 37°C for static culture. For suspension cells in the logarithmic phase, the original culture medium was directly centrifuged at 50g for 5 minutes, the supernatant was discarded, and the cells were washed once with PBS and centrifuged. After discarding the supernatant, the complete culture medium was added and the cells were dispersed using a rubber-tipped dropper. The cells are counted, and the cell density was adjusted. The cells were inoculated into appropriate culture bottles or culture dishes, and sufficient complete culture medium was added, and the cells were cultured in a cell culture incubator at 5% CO2 and 37°C. • 3.

[3] = test system: human breast cancer cell MCF-7; assay: as above; settings: MCF7
Description: as §1, with “The cells were inoculated into appropriate culture bottles or culture dishes, and sufficient complete culture medium was added, and the cells were cultured in a cell culture incubator at 5% CO2 and 37°C. • 3.” left out

[4] = test system: human breast ductal carcinoma cell T-47D; assay: as above; settings: T47D
Description: as §1

[5] = test system: human ovarian adenocarcinoma cellSK-OV-3; assay: as above; settings: SK-OV-3
Description: as §1

Compound | resistance of bacteria in the subsequent culture ([1]; Staphylococcus aureus ATCC43300, serial passage) | MIC [1] [µg/mL] | IC50 [2] [µM] | IC50 [3] [µM] | initial MIC compared with ciprofloxacin and vancomycin ([1]; Staphylococcus aureus ATCC43300, start of resistance test) | IC50 [4] [µM] | IC50 [5] [µM]
O=C(O)c1cn(C2CC2)c2cc(N3CCNCC3)c(F)cc2c1=O [Ciprofloxacin] | increased rapidly | 128 (≈ 386 µM) | > 100 | > 100 |  |  | 
O=C(O)c1cn(C2CC2)c2c(Cl)c(-c3ccc(S(=O)(=O)NCCCC(F)(F)F)nc3)c(F)cc2c1=O [Example 29, 8-chloro-1-cyclopropyl-6-fluoro-4-oxo-7-(6-(N-(4,4,4-trifluorobutyl)sulfamoyl)pyridin-3-yl)-1,4-dihydroquinolin-3-carboxylic acid] |  | 2 (≈ 3.65 µM) | 1 to 10 | 1 to 10 | superior | 1 to 10 | 1 to 10
CCN(CC)CCNC(=O)c1c(C)[nH]c(/C=C2\C(=O)Nc3ccc(F)cc32)c1C [Sunitinib] |  |  |  | 3.2 ± 0.3 |  | 6.4 ± 1.7 | 12.2 ± 5.8
